# Assay results taken from patent US20220331442A1, “ANTIBODY-BIOMOLECULE CONJUGATES LINKED THROUGH MULTIFUNCTIONAL MACROMOLECULE AND USES THEREOF” (LEVIM BIOTECH LLP, priority 2018, published 2022).
# Key:
# [1] = MTT cytotoxicity assay; format: cell-based; settings: human, H23 NSCLC cells; gefitinib alone at 50 μM, FIG. 21(b); read-out: Loss of viability of H23 cells
# [2] = system: H23 NSCLC cells; experiment: MTT cytotoxicity assay; format: cell-based; settings: gefitinib alone, up to a concentration of 25 μM, FIG. 21(b)
structure (smiles),measurement,setting,value
COc1cc2ncnc(Nc3ccc(F)c(Cl)c3)c2cc1OCCCN1CCOCC1 [gefitinib],cytotoxicity at 50 μM,[1],70%
same,Cytotoxicity (MTT),[2],no toxicity
